For assay [1], the system named is C2C12 mycrotubes. The assay can be described thus: Insulin sensitivity assay (glucose uptake in presence of insulin). The assay is classed as cell-based. The settings on record: in the presence of insulin 100 nM. The procedure:
Differentiated C2C12 mycrotubes (American Type Culture Collection: ATCC) were used to conduct an insulin sensitivity assay, which was performed based on the method as described in Experimental and Molecular Medicine, Vol. 39, No. 2, 222-229, 2007. Briefly, the cells were incubated with different concentrations of Compound 1 in the presence of insulin 100 nM, and then the glucose uptake was measured. AMPK activator AICAR (5-amino-4-carboxamide imidazole riboside 5′-phosphate, […]) was used as a positive control.

The subject of assay [2] is Streptozotocin (STZ)-induced diabetic mice. The assay can be described thus: Glucose tolerance assay in type I diabetic mice. It counts as in vivo. The procedure:
Streptozotocin (STZ)-induced diabetic mice were administered orally with Compound 1 (50 mg/kg). STZ-induced diabetic mice are a well-known mouse model of type I diabetes (insulin dependent). See, e.g., Liu I M, et al., Neuroscience Letters 2001; 307: 81-84.
Two hours later, normal mice, STZ-induced diabetic mice, and the Compound 1-treated STZ-mice as described were subjected to a glucose tolerance assay. Briefly, all of the mice were orally administered with 1 g/kg glucose and the blood glucose levels of these mice were examined at 30, 60, 90, 120 and 150 minutes. In the normal and STZ-diabetic mice, the blood glucose levels elevated 30 minutes after uptake of glucose.
Alternatively, STZ-induced diabetic mice were treated with Compound 1 orally (100 mg/kg) for 14 days. These mice were then orally administered with glucose at a dose of 2 g/kg. Their blood glucose levels were examined 15, 45, 75, and 105 minutes after glucose administration.

Assay [3] has as its system AMP-activated protein kinase (AMPK). In words: AMPK phosphorylation assay. The assay is classed as cell-based. The settings on record: C2C12 myotubes, 0, 1, 3, 10 and 30 μM, 37° C., 1 hour. The procedure:
In this study, differentiated C2C12 mycrotubes (American Type Culture Collection: ATCC) were used to conduct an AMPK phosphorylation assay, which was performed based on the method as described in Experimental and Molecular Medicine, Vol. 39, No. 2, 222-229, 2007. Briefly, the cells were cultured as in Example 1 and incubated with different concentrations of Compound 1 (0, 1, 3, 10 and 30 μM) at 37° C. for 1 hour and then cells were lysed. The cell lysate were immunodetected with phosphor-AMPK specific antibody. […] AMPK activator AICAR (5-amino-4-carboxamide imidazole riboside 5′-phosphate, 1 mM) was used as a positive control.

Assay [4] has as its system db/db mice. The assay can be described thus: HOMA-IR test in type II diabetic mice. To be noted: 100 mg/kg/day orally for 28 days. It counts as in vivo. The procedure:
HOMA-IR is expressed by an empirical mathematical formula based on fasting plasma glucose and fasting plasma insulin levels that was developed as a surrogate measurement of in vivo insulin sensitivity: HOMA value for insulin resistance: (HOMA-IR)=fasting insulin (μU/ml)×fasting glucose (mmol/l)/22.5. See, e.g., Biol. Pharm. Bull. 2007; 30:2196-2200.
In this study, the db/db mice (Jackson Laboratory) were orally administered with Compound 1 (100 mg/kg/day) for 28 days. Subsequently, normal mice, db/db-mice, and the Compound 1-treated db/db-mice were subjected to a HOMA-IR test, which was conducted based on a method as described in Biol. Pharm. Bull. 2007; 30:2196-2200. Briefly, mouse insulin enzyme immunoassay ELISA kit was used to measure the plasma insulin concentration. Insulin resistance was determined by the homeostasis model assessment (HOMA) method.

In assay [5] the test system is Glut4 (glucose transporter-4). The assay can be described thus: Glucose transporter-4 (Glut4) expression assay in soleus muscles. The assay is classed as in vivo. The settings on record: STZ-induced diabetic mice, 100 mg/kg orally for 14 days, western blot. The procedure:
GLUT4 plays an important role in insulin-induced glucose uptake to maintain normal blood glucose levels. In this study, STZ-induced diabetic mice were treated with Compound 1 orally (100 mg/kg) for 14 days; and then normal mice, STZ-induced diabetic, and the Compound 1-treated STZ-mice as described were analyzed for the Glut4 expression in soleus muscles based on the method as described in Biochem J. 1996; 313(Pt 1): 133-140). Briefly, at the end of the experimental period, animals were sacrificed by exsanguinations under diethyl ether anesthesia. Soleus muscles from each animal were excised and weighed. The soleus muscles were homogenized in lysis buffer and centrifugation, and then went to determine the GLUT4 protein expression by western blot analysis.

Assay [6] deals with C2C12 mycrotubes. The assay can be described thus: Glucose consumption/uptake assay. The settings on record: [14C]2-DG, incubated with compounds for 1 hour. The assay is classed as cell-based. The procedure: Differentiated C2C12 mycrotubes (American Type Culture Collection: ATCC) were used to conduct a glucose consumption/uptake assay, which was performed based on the method as described in Experimental and Molecular Medicine, Vol. 39, No. 2, 222-229, 2007. Briefly, the C2C12 cells were pretreated with 0.5 μCi [^14C]2-DG for 20 min and then incubated with compounds for 1 hour to determine glucose uptake by radio activity. All values are expressed as the means±S.E. of three experiments.

Another assay concerns PEPCK mRNA. The assay can be described thus: Phosphoenolpyruvate carboxykinase (PEPCK) mRNA expression assay in liver. It counts as in vivo. To be noted: STZ-induced diabetic mice, 100 mg/kg orally for 14 days, RT-PCR. The procedure:
PEPCK is known as a key enzyme that controls gluconeogenesis in the liver. In this study, STZ-induced diabetic mice were treated with Compound 1 orally (100 mg/kg) for 14 days, and then normal mice, STZ-induced diabetic, and the Compound 1-treated STZ-mice described above were analyzed for the PEPCK mRNA expression in liver based on the method as described in Bulletin of Experimental Biology and Medicine 1979; 87: 568-571. Briefly, at the end of the experimental period, animals were sacrificed by exsanguinations under diethyl ether anesthesia. Livers from each animal were excised and weighed. The liver homogenates were prepared to determine the PEPCK mRNA expression by RT-PCR analysis.

Another assay concerns acetyl CoA carboxylase. In words: Acetyl CoA carboxylase (ACC) phosphorylation assay. The assay is classed as cell-based. The settings on record: C2C12 mycrotubes, different concentrations.
Assay [7] concerns db/db mice. In words: HbA1C (Haemoglobin A1C) test in type II diabetic mice. It counts as in vivo. The settings on record: 100 mg/kg/day orally for 28 days. The procedure:
In the blood stream, glucose sticks to the haemoglobin to form a “glycosylated haemoglobin” molecule, called haemoglobin A1C or HbA1C. The more glucose in the blood, the more haemoglobin A1C or HbA1C will be present in the blood. The HbA1C test is currently one of the common ways to check if diabetes is under control. See, e.g. Diabetes Care. 2001; 24:465-471.
In this study, the db/db mice (Jackson Laboratory) were orally administered with Compound 1 (100 mg/kg/day) for 28 days. Subsequently, normal mice, db/db-mice, and the Compound 1-treated db/db-mice were subjected to a HbA1C test, which was conducted based on a method as described in Life Sci. 2005; 77:1391-403. Briefly, at the end of the experimental period, animals were sacrificed by exsanguinations under diethyl ether anesthesia. Plasma was separated from the blood by centrifugation. HbA1c in blood was measured by the standardized method.

Assay [8] concerns High fat-diet fed (HFD) mice. The assay can be described thus: Blood lipid/cholesterol assay in high fat-diet fed mice. It counts as in vivo. To be noted: 100 mg/kg orally for 28 days. The procedure:
High fat-diet fed (HFD) mice as a type 2 diabetic model were prepared based on the method as previously described in Diabetes 53 (Suppl. 3):S215-S219, 2004). In this study, mice were fed with a high-fat diet (TestDiet, Richmond, Ind., USA; fat content 60% kcal) for 8 weeks to induce type 2 diabetes. The HFD mice were treated with Compound 1 orally (100 mg/kg) for 28 days; and then normal mice, HFD mice, and the Compound 1-treated HFD mice were analyzed for the levels of serum lipids, including total cholesterol, triglyceride, high-density lipoprotein (HDL)-cholesterol, and low-density lipoprotein (LDL)-cholesterol by ELISA kits.

Assay [9] deals with db/db mice. In words: Glucose tolerance assay in type II diabetic mice. It counts as in vivo. To be noted: 100 mg/kg/day orally 28 days or 30 mg/kg/day i.p. 21 or 28 days. The procedure: Insulin-resistant C57BL/6J-Leprdb/Lepr^db (hereafter, db/db) mice are a well-known mouse model of type II diabetes. See, e.g., Metabolism. 2000; 49:22-31). In this study, the db/db mice (Jackson Laboratory) were orally administered with Compound 1 (100 mg/kg/day) for 28 days, or administered with Compound 1 (30 mg/kg/day) via intraperitoneal (i.p.) injection for 21 days or 28 days. Two hours later, normal mice, db/db-mice, and the Compound 1-treated db/db-mice were subjected to a glucose tolerance assay as described in Example 1. FIGS. 6 to 8 show the results.

[10] abbreviates: STZ-induced diabetic mice, 100 mg/kg orally for 14 days, glucose 2 g/kg orally.

As for `Cc1cc2c(c(C)c1CCO)C(=O)C(C)(C)C2O` (stereo not shown) [Compound 7], the “insulin sensitivity (glucose uptake)” value in the assay on C2C12 mycrotubes [1] is on record as “the same effect”. Further, the “blood glucose levels in STZ-induced diabetic mice (glucose tolerance)” value (shortened to “blood glucose levels … (glucose tolerance)”) in assay [2] (setting [10]) is reported as “the same effect”. Moreover, the “phosphorylation of the AMPK alpha-subunit at Thr172” value (from here on “phosphorylation … at Thr172”) in assay [3] is recorded as “the same effect”. For the same compound, the HOMA-IR levels entry in the assay on db/db mice [4] is on record as “the same effect”.
With `Cc1cc2c(c(C)c1CCO)C(=O)C(C)(CO)C2` (stereo not shown) [Compound 1, 6-(2-Hydroxy-ethyl)-2-hydroxymethyl-2,5,7-trimethyl-indan-1-one], in [5], the “redistribution of Glut4 into the cell membrane of soleus muscles” value is recorded as “significantly rescued the redistribution of Glut4”. The glucose consumption/uptake entry in the assay on C2C12 mycrotubes [6] is “significantly promote glucose consumption/uptake”. In the assay on PEPCK mRNA, the “overexpression of PEPCK mRNA in the liver” value was “significantly inhibited the overexpression of PEPCK mRNA”. The “phosphorylation of acetyl CoA carboxylase at Ser79” value with acetyl CoA carboxylase is on record as “increased phosphorylation”. Besides, in the assay with C2C12 mycrotubes [1], the “insulin sensitivity (glucose uptake)” value is “significantly enhanced the insulin sensitivity”. Also, the HbA1C levels entry with db/db mice [7] is listed as “significantly reduced the HbA1C levels”. Further, the anti-obesity effects result in assay [8] is “exhibited anti-obesity effects”. Moreover, the serum lipids entry in assay [8] (total cholesterol, triglyceride, HDL- and LDL-cholesterol by ELISA) is on record as “significantly reduced serum lipids”. In the assay with db/db mice [9], the “glucose intolerance in db/db-mice” value is recorded as “significantly improved the glucose intolerance”. For the same compound, the “blood glucose levels at 30 minute after glucose uptake” value in [2] (STZ-diabetic mice, 50 mg/kg orally, 2 hours before 1 g/kg oral glucose, 30 min) is “increased only slightly”. In addition, the “blood glucose levels 60 minutes after glucose uptake” value in [2] (STZ-diabetic mice, 50 mg/kg orally, 2 hours before 1 g/kg oral glucose, 60 min) is listed as “significantly lowered”. Further, the “blood glucose levels … (glucose tolerance)” value in [2] (setting [10]) is reported as “significantly lowered blood glucose levels”. For the same compound, in assay [2] (STZ-induced diabetic mice, 100 mg/kg orally for 14 days, glucose 2 g/kg orally, 45 min), the “blood glucose levels 45 minutes after glucose administration” value is listed as “decreased significantly”. Also, in assay [3], the “phosphorylation … at Thr172” value is “increased the phosphorylation of the AMPK alpha-subunit at Thr^172 in a dose dependent manner”. Besides, in the assay with db/db mice [4], the HOMA-IR levels result is “significantly reduced the HOMA-IR levels”.
`Cc1cc2c(c(C)c1CCOC1OC(CO)C(O)C(O)C1O)C(=O)C(C)(C)C2` (stereo not shown) [Compound 52]: the “phosphorylation … at Thr172” value in assay [3] is “the same effect”.
Consider `Cc1cc2c(c(C)c1CCO)C(=O)C(C)(C)C2OC1OC(CO)C(O)C(O)C1O` (stereo not shown) [Compound 73], for which the “insulin sensitivity (glucose uptake)” value with C2C12 mycrotubes [1] is listed as “the same effect”. In [2] (setting [10]), the “blood glucose levels … (glucose tolerance)” value is given as “the same effect”. In addition, in assay [3], the “phosphorylation … at Thr172” value was “the same effect”. The HOMA-IR levels result in the assay with db/db mice [4] is given as “the same effect”.
`Cc1cc2c(c(C)c1CCO)C(=O)C(C)C2O` (stereo not shown) [Compound 4]: the “phosphorylation … at Thr172” value in [3] is recorded as “the same effect”.

Values taken from US8633252B2, “Use of pterosin compounds for treating diabetes and obesity” (Taipei Medical University, priority 2009, dated 2014).
